Measurements reported in EP0180615B1, “NOVEL ATRIAL NATRIURETIC/VASODILATOR POLYPEPTIDES” (priority 1984, dated 1995).
Positions of bridges follow the written chain, without caps; N, C: chain ends. Residues, ends and D or L forms follow the SMILES beside them.

Experiments:
[1] = test system: cultured bovine aortic smooth muscle cells; assay: cyclic GMP accumulation in cultured aortic smooth muscle cells; format: cell-based; conditions: dose-response, % of maximal cyclic GMP increase (Figure 11A)
From the text: (§1) Since the agonistic action of ANVP in vascular smooth muscle not only results from binding to specific receptors, but is also associated with increases in cyclic GMP, the effects of ANVPs and analogs on cyclic GMP accumulation were examined using the same cultured cells. […] In Figure 11A & B, the relative activities of ANVP and analogs on cyclic GMP accumulation in aortic smooth muscle and endothelial cells are shown. The data is plotted in a dose-response relationship (log dose vs % of maximal cyclic GMP increases).

[2] = test system: cultured bovine aortic endothelial cells; assay: cyclic GMP accumulation in cultured aortic endothelial cells; format: cell-based; conditions: dose-response, % of maximal cyclic GMP increase (Figure 11B)
From the text: as §1

[3] = test system: binding sites on vascular smooth muscle cells; assay: 125I-ANVP binding and displacement on cultured vascular wall cells; set-up: species or system bovine; conditions: unlabelled competitor; vascular smooth muscle cells (Table III)
Description: Therefore, cells of vascular wall origin, e.g. bovine aortic smooth muscle and endothelial cells, were used to determine binding of ANVP compounds to specific receptors and associated cyclic GMP increases were measured.
Binding assays were performed as follows: ANVPs were labelled with ^1251 according to the procedure of Schenk, et al., J. Biol. Chem., 259:14941-14951 (1984). This procedure utilizes glucose oxidase and lactoperoxidase mediated oxidations to transfer ^1251 to the tyrosine on the ANVP molecule. ^1251-ANVP was then added to 10 mm confluent cultures of vascular wall cells and incubated at 37 °C.
Thus, the displacement of ^1251-ANVP binding by ANVPs and analogs as a function of concentration is a reflection of their potency to bind to the vascular wall and alter the contractile state of the vessel.

[4] = test system: isolated adrenal cells; assay: angiotensin-stimulated aldosterone production by isolated adrenal cells; format: cell-based
From the text: (§2) Thus, ANVPs are able to block the effects of the renin-angiotensin system at several levels: (1) they antagonize the direct actions of angiotensin on its target organs (blood vessels and the adrenal); and (2) inhibit renin secretion, which leads to a reduced rate of angiotensin formation in the blood.

[5] = test system: intact rat; assay: natriuresis after bolus injection in the intact anesthetized rat; format: in vivo; conditions: Inactin anesthetized rats on constant saline infusion
Description: Synthetic ANVP compounds rANVP(126-149), rANVP(126-150) and hANVP(127-151) were also found to be natriuretic in the intact rat. These compounds were administered as a bolus injection to Inactin anesthetized rats (100 mg/kg, average weight 399 g) which were maintained on a constant infusion of normal saline at 2.2 ml/hr. […] Data are expressed as mean ± SE.

[6] = test system: isolated rat kidney; assay: isolated perfused rat kidney
Description: The activity of rANVP(126-149) was measured in the isolated rat kidney. Functioning isolated rat kidneys were perfused in a closed-circuit system, as described in Camargo, M.J.F. et al. Am.J.Physiol., 246:F447-F456 (1984). After control clearance periods, 0.1 to 1.0 µg of the compound was added to the perfusate. The effects on multiple parameters were noted. These peak values are expressed in Table I as the experimental data. It is clear that rANVP(126-149) caused urine flow rate, urinary sodium excretion, filtration fraction and glomerular filtration rate to increase.
Isolated rat kidneys were treated as described in Table I. Control periods for each compound are denoted by C and experimental periods following the addition of compounds are denoted by E. V-urine flow rate UNaV-urinary sodium excretion rate, GFR-glomerular filtration rate. Data represent the mean of 3-8 experiments.
Samples of the above expressed material were also tested for natriuretic and diuretic activity using the isolated perfused rat kidney model as described by Camargo, M. et al., Am. J. Physiol. 246:F447-F456-(1984). As shown in Table VIII material synthesized and secreted by yeast cultures containing YEp-a-NF-5 and purified as described above through the SP-Sephadex step increased urinary Na^+ excretion approximately 3-fold and urinary volume 2-fold as examined during repeated test periods of 10 minutes each. […] No significant increase occurred in urinary Na^+ excretion, urinary volume, glomerular filtration or renal resistance when the same experiment was performed on material synthesized and secreted by yeast cultures containing the reverse orientation control plasmid YEp-a-NF-7 and purified through SP-Sephadex@.

[7] = test system: anesthetized dogs; assay: renal and hemodynamic effects of constant infusion in anesthetized dogs; format: in vivo; conditions: 1 µg/kg bolus, followed by 0.1 µg/kg/min for 1 hour
Description: Renal and hemodynamic effects have also been measured in anesthetized dogs receiving a constant infusion of the compound rANVP(126-149) (1 µg/kg bolus, followed by 0.1 µg/kg/min for 1 hour). Immediate effects were noted on blood pressure, GFR and urine flow rate and electrolyte excretion which were sustained throughout the infusion. The "experimental" data presented for these parameters in Table IV are the average values obtained during the infusion. […] All these parameters returned to control (i.e. pre-infusion) levels during the recovery period (i.e. following termination of the infusion).
as §2

[8] = 0.1 to 1.0 µg added to the perfusate after control clearance periods, peak values
[9] = 0.1 to 1.0 µg added to the perfusate, perfused in the absence of vasoconstrictors

CC[C@H](C)[C@@H]1NC(=O)[C@H](CCCNC(=N)N)NC(=O)[C@H](CC(=O)O)NC(=O)[C@H]([C@@H](C)CC)NC(=O)[C@H](CCCNC(=N)N)NC(=O)CNC(=O)[C@@H](C)NC(=O)[C@H](Cc2ccccc2)NC(=O)[C@@H](NC(=O)[C@H](CO)NC(=O)[C@H](CO)NC(=O)[C@@H](N)CCCNC(=N)N)CSSC[C@@H](C(=O)N[C@@H](CC(N)=O)C(=O)N[C@@H](CO)C(=O)N[C@@H](Cc2ccccc2)C(=O)N[C@@H](CCCNC(=N)N)C(=O)N[C@@H](Cc2ccc(O)cc2)C(=O)O)NC(=O)CNC(=O)[C@H](CC(C)C)NC(=O)CNC(=O)[C@H](CO)NC(=O)[C@H](CCC(N)=O)NC(=O)[C@H](C)NC(=O)CNC1=O [[D-Ala^131]rANVP(126-150)]
rank order of potency, cyclic GMP accumulation [1]: > rANVP(127-150) = other D amino acid substitutions
rank order of potency, cyclic GMP accumulation [2]: > rANVP(127-150) = other D amino acid substitutions

CC[C@H](C)[C@@H]1NC(=O)[C@H](CCCNC(=N)N)NC(=O)[C@H](CC(=O)O)NC(=O)[C@H]([C@@H](C)CC)NC(=O)[C@H](CCCNC(=N)N)NC(=O)CNC(=O)CNC(=O)[C@H](Cc2ccccc2)NC(=O)[C@@H](NC(=O)[C@H](CO)NC(=O)[C@H](CO)NC(=O)[C@@H](N)CCCNC(=N)N)CSSC[C@@H](C(=O)N[C@@H](CC(N)=O)C(=O)N[C@@H](CO)C(=O)N[C@@H](Cc2ccccc2)C(=O)N[C@@H](CCCNC(=N)N)C(=O)N[C@@H](Cc2ccc(O)cc2)C(=O)O)NC(=O)CNC(=O)[C@H](CC(C)C)NC(=O)[C@@H](C)NC(=O)[C@H](CO)NC(=O)[C@H](CCC(N)=O)NC(=O)[C@H](C)NC(=O)CNC1=O [[D-Ala^142]rANVP(126-150), [D-Ala'^42]rANVP(126-150)]
rank order of potency, cyclic GMP accumulation [1]: > rANVP(127-150) = other D amino acid substitutions
rank order of potency, cyclic GMP accumulation [2]: > rANVP(127-150) = other D amino acid substitutions
displacement of 125I-ANVP binding [3]: most reactive

CC[C@H](C)[C@@H]1NC(=O)[C@H](CCCNC(=N)N)NC(=O)[C@H](CC(=O)O)NC(=O)[C@H]([C@@H](C)CC)NC(=O)[C@H](CCCNC(=N)N)NC(=O)CNC(=O)CNC(=O)[C@H](Cc2ccccc2)NC(=O)[C@@H](NC(=O)[C@H](CO)NC(=O)[C@H](CO)NC(=O)[C@@H](N)CCCNC(=N)N)CSSC[C@@H](C(=O)N[C@@H](CC(N)=O)C(=O)N[C@@H](CO)C(=O)N[C@@H](Cc2ccccc2)C(=O)N[C@@H](CCCNC(=N)N)C(=O)O)NC(=O)CNC(=O)[C@H](CC(C)C)NC(=O)CNC(=O)[C@H](CO)NC(=O)[C@H](CCC(N)=O)NC(=O)[C@H](C)NC(=O)CNC1=O [rANVP(126-149), rANVP (126-149)] (H-RSSCFGGRIDRIGAQSGLGCNSFR-OH; disulfide 4-20)
ability of angiotensin to stimulate aldosterone production [4]: inhibits
rank order of potency, cyclic GMP accumulation [1]: > rANVP(127-150) = other D amino acid substitutions
natriuretic in the intact rat [5]: natriuretic
urinary sodium excretion [6, 8]: increase
urine flow rate [6, 8]: increase
filtration fraction [6, 9]: increase
glomerular filtration rate [6, 9]: increase
GFR rose [7]: 25-35%
Mean arterial pressure (MAP) fell [7]: 10-15%
diuresis and natriuresis [7]: sustained diuresis and natriuresis
plasma aldosterone (PA) [7]: significant decreases
plasma renin activity (PRA) [7]: significant decreases
rank order of potency, cyclic GMP accumulation [2]: > rANVP(127-150) = other D amino acid substitutions

angiotensin
displacement of 125I-ANVP binding [3]: not by a variety of hormones

glucagon
displacement of 125I-ANVP binding [3]: not by a variety of hormones

vasopressin
displacement of 125I-ANVP binding [3]: not by a variety of hormones
